Test results as given in patent US20230066946A1, “1,5-DIPHENYLPYRAZOLYL-3-OXYALKYL ACIDS AND 1-PHENYL-5-THIENYLPYRAZOLYL-3-OXYALKYL ACIDS AND THE USE THEREOF FOR CONTROL OF UNWANTED PLANT GROWTH” (Bayer Aktiengesellschaft, priority 2019, published 2023).

Columns and labels:
ALOMY = test: Pre-emergence herbicidal action against ALOMY; type: in vivo, Alopecurus myosuroides; details: scored visually after about 3 weeks vs untreated controls, 100% = plants have died, 0% = like control plants
From the text: (§1) Seeds of mono- and dicotyledonous weed plants are placed in plastic pots in sandy loam soil (doubly sown with one species each of mono- or dicotyledonous weed plants per pot) and covered with soil. The compounds of the invention, formulated in the form of wettable powders (WP) or as emulsion concentrates (EC), are then applied onto the surface of the covering soil as aqueous suspension or emulsion with addition of 0.5% additive at a water application rate equivalent to 600 litres per hectare. After the treatment, the pots are placed in a greenhouse and kept under good growth conditions for the trial plants. After about 3 weeks, the effect of the preparations is scored visually in comparison with untreated controls as percentages. For example, 100% activity=the plants have died, 0% activity=like control plants. [table] Tables 4.1-4.15 below show the effects of selected compounds of the general formula (I) according to Tables 1 to 3 on various harmful plants at an application rate corresponding to 1280 or 320 g/ha, which have been obtained by the aforementioned experimental method.

AMARE [1] = test: Pre-emergence herbicidal action against AMARE; type: in vivo, Amaranthus retroflexus; details: scored visually after about 3 weeks vs untreated controls; for Pre-emergence action at 320 g/ha against AMARE in %: 100% = plants have died, 0% = like control plants; for Pre-emergence action against AMARE in %: 1280 g/ha
How it was run: (§2)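 Greenhouse pot test on sown, soil-covered weed seeds; spray of WP or EC formulation at 1280 or 320 g/ha onto covering soil. Effect rated visually after about 3 weeks (0% = like control, 100% = dead).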

STEME [2] = test: Pre-emergence herbicidal action against STEME; type: in vivo, Stellaria media; details: scored visually after about 3 weeks vs untreated controls
How it was run: as §2

AMARE [3] = test: Post-emergence herbicidal action against AMARE; type: in vivo, Amaranthus retroflexus; details: visual rating about 3 weeks after treatment
How it was run: (§3)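 Applied post-emergence at 1280 or 320 g/ha to one-leaf-stage weeds grown in sandy loam, using WP or EC formulations in water (600 litres per hectare, 0.5% additive). Efficacy is scored visually relative to untreated plants about 3 weeks later, 0% meaning no effect and 100% plant death.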

VERPE [4] = test: Post-emergence herbicidal action against VERPE; type: in vivo, Veronica persica; details: 320 g/ha, visual rating about 3 weeks after treatment
How it was run: as §3

VERPE [5] = test: Pre-emergence herbicidal action against VERPE; type: in vivo, Veronica persica; details: 320 g/ha, scored visually after about 3 weeks vs untreated controls
How it was run: as §2

PHBPU = test: Post-emergence herbicidal action against PHBPU; type: in vivo, Pharbitis purpurea; details: 320 g/ha, visual rating about 3 weeks after treatment
How it was run: as §3

POLCO [6] = test: Post-emergence herbicidal action against POLCO; type: in vivo, Polygonum convolvulus; details: 320 g/ha, visual rating about 3 weeks after treatment
How it was run: as §3

STEME [7] = test: Post-emergence herbicidal action against STEME; type: in vivo, Stellaria media; details: visual rating about 3 weeks after treatment
How it was run: as §3

harmful plants = test: Post-emergence herbicidal action, summary of Tables 5.1-5.16; type: in vivo; details: result in words
Method: Seeds of mono- and dicotyledonous weed plants are placed in plastic pots in sandy loam soil (twin sowing with one species each of mono- or dicotyledonous weed plants per pot), covered with soil and cultivated in a greenhouse under controlled growth conditions. 2 to 3 weeks after sowing, the test plants are treated at the one-leaf stage. The compounds of the invention, formulated in the form of wettable powders (WP) or as emulsion concentrates (EC), are applied to the green parts of the plants as aqueous suspension or emulsion with addition of 0.5% additive at a water application rate equivalent to 600 litres per hectare. After the test plants have been kept in the greenhouse under optimum growth conditions for about 3 weeks, the activity of the preparations is rated visually in comparison to untreated controls. For example, 100% activity=the plants have died, 0% activity=like control plants. Tables 5.1-5.16 below show the effects of selected compounds of the general formula (I) according to Tables 1 to 3 on various harmful plants at an application rate corresponding to 1280 or 320 g/ha, which have been obtained by the aforementioned experimental method. As the results from Tables 5.1-5.16 show, compounds of the invention have good herbicidal post-emergence efficacy against a broad spectrum of weed grasses and weeds. […] For example, compounds Nos. I-002, I-006, I-022, I-056 and I-072 applied by the post-emergence method have very good herbicidal action (80% to 100% herbicidal action) against harmful plants such as Alopecurus myosuroides, Amaranthus retroflexus, Matricaria inodora, Setaria viridis, Pharbitis purpurea and Stellaria media at an application rate of 1.28 kg of active substance or less per hectare.

ECHCG [8] = test: Pre-emergence herbicidal action against ECHCG; type: in vivo, Echinochloa crus-galli; details: scored visually after about 3 weeks vs untreated controls, 100% = plants have died, 0% = like control plants
How it was run: as §2

SETVI [9] = test: Pre-emergence herbicidal action against SETVI; type: in vivo, Setaria viridis; details: 1280 g/ha, scored visually after about 3 weeks vs untreated controls
How it was run: as §2

POLCO [10] = test: Pre-emergence herbicidal action against POLCO; type: in vivo, Polygonum convolvulus; details: 320 g/ha, scored visually after about 3 weeks vs untreated controls
From the text: as §1

ECHCG [11] = test: Post-emergence herbicidal action against ECHCG; type: in vivo, Echinochloa crus-galli; details: 1280 g/ha, post-emergence at one-leaf stage, rated visually after about 3 weeks vs untreated controls
How it was run: as §3

SETVI [12] = test: Post-emergence herbicidal action against SETVI; type: in vivo, Setaria viridis; details: 1280 g/ha, post-emergence at one-leaf stage, rated visually after about 3 weeks vs untreated controls
How it was run: as §3

MATIN = test: Post-emergence herbicidal action against MATIN; type: in vivo, Matricaria inodora; details: visual rating about 3 weeks after treatment
How it was run: as §3

VIOTR = test: Post-emergence herbicidal action against VIOTR; type: in vivo, Viola tricolor; details: 320 g/ha, visual rating about 3 weeks after treatment
How it was run: as §3

HORMU = test: Post-emergence herbicidal action against HORMU; type: in vivo, Hordeum murinum; details: 320 g/ha, visual rating about 3 weeks after treatment
Method: [table] Seeds of mono- and dicotyledonous weed plants are placed in plastic pots in sandy loam soil (twin sowing with one species each of mono- or dicotyledonous weed plants per pot), covered with soil and cultivated in a greenhouse under controlled growth conditions. 2 to 3 weeks after sowing, the test plants are treated at the one-leaf stage. The compounds of the invention, formulated in the form of wettable powders (WP) or as emulsion concentrates (EC), are applied to the green parts of the plants as aqueous suspension or emulsion with addition of 0.5% additive at a water application rate equivalent to 600 litres per hectare. After the test plants have been kept in the greenhouse under optimum growth conditions for about 3 weeks, the activity of the preparations is rated visually in comparison to untreated controls. For example, 100% activity=the plants have died, 0% activity=like control plants. Tables 5.1-5.16 below show the effects of selected compounds of the general formula (I) according to Tables 1 to 3 on various harmful plants at an application rate corresponding to 1280 or 320 g/ha, which have been obtained by the aforementioned experimental method.

| Structure (SMILES) | Pre-emergence action at 320 g/ha against AMARE in % (AMARE [1]) | Pre-emergence action against AMARE in % (AMARE [1]) | Pre-emergence action against STEME in % (STEME [2]; 1280 g/ha) | Post-emergence action against AMARE in % (AMARE [3]; 1280 g/ha) | Post-emergence action against VERPE in % (VERPE [4]) | Pre-emergence action against VERPE in % (VERPE [5]) | Post-emergence action against AMARE in % (AMARE [3]; 320 g/ha) | Post-emergence action against PHBPU in % (PHBPU) | Post-emergence action against POLCO in % (POLCO [6]) | Post-emergence action against STEME in % (STEME [7]; 320 g/ha) | herbicidal efficacy against harmful plants when applied post-emergence (harmful plants) | Pre-emergence action at 1280 g/ha against ECHCG in % (ECHCG [8]) | Pre-emergence action against SETVI in % (SETVI [9]) | Pre-emergence action against POLCO in % (POLCO [10]) | Pre-emergence action against STEME in % (STEME [2]; 320 g/ha) | Post-emergence action against ECHCG in % (ECHCG [11]) | Post-emergence action against SETVI in % (SETVI [12]) | Post-emergence action against MATIN in % (MATIN; 320 g/ha) | Post-emergence action against MATIN in % (MATIN; 1280 g/ha) | Post-emergence action against STEME in % (STEME [7]; 1280 g/ha) | other results |
| --- | --- | --- | --- | --- | --- | --- | --- | --- | --- | --- | --- | --- | --- | --- | --- | --- | --- | --- | --- | --- | --- |
| COC(=O)COc1nn(-c2ccc(Cl)cc2)c(-c2ccc(F)cc2)c1Cl [I-007] | 80% | 100% | 90% | 80% | 90% |  |  |  |  |  |  |  |  |  |  |  |  |  |  |  | Pre-emergence action at 1280 g/ha against ALOMY in % (ALOMY): 80% |
| COC(=O)COc1nn(-c2ccccc2)c(-c2ccc(F)cc2)c1C#N [I-014] | 100% |  |  |  |  | 100% | 80% | 80% | 80% | 80% | very good herbicidal efficacy |  |  |  |  |  |  |  |  |  |  |
| COC(=O)COc1nn(-c2ccccc2F)c(-c2ccccc2)c1Br [I-054] | 100% | 100% | 100% | 100% | 80% | 100% | 90% | 100% | 80% | 90% | very good herbicidal efficacy | 90% | 90% | 100% | 100% | 90% | 100% | 90% | 100% | 100% | Post-emergence action against VIOTR in % (VIOTR): 90% |
| O=C(O)COc1nn(-c2c(F)cccc2F)c(-c2ccc(F)c(F)c2)c1Br [I-137] | 90% | 100% | 100% | 90% | 90% | 90% | 80% | 90% | 90% | 90% |  | 100% | 100% | 100% | 90% | 100% | 90% | 80% | 90% | 100% | Post-emergence action against VIOTR in % (VIOTR): 80%; Post-emergence action against HORMU in % (HORMU): 80% |
| C1COCCN1.O=C(O)COc1nn(-c2cccc(F)c2)c(-c2ccccc2)c1I [II-04] |  | 100% | 100% |  |  |  |  |  |  |  | very good herbicidal efficacy | 100% |  |  |  |  |  |  |  | 100% |  |
| COC(=O)CNC(=O)C(C)Oc1nn(-c2ccccc2)c(-c2ccc(F)cc2)c1Cl (stereo not drawn) [III-058] |  | 100% | 100% | 90% |  |  |  |  |  |  | very good herbicidal efficacy | 90% | 90% |  |  |  | 100% |  | 100% | 100% |  |
